According to patent EP1105728B1, “MODULATING MULTIPLE LINEAGE KINASE PROTEINS” (CEPHALON, INC., priority 1998, dated 2000):
Read-outs that look alike come from different tables or passages of the source. Starred links: 1 amine or outer side, 2 acyl side, 3 side chain; linkers in the order of their positions; H or OH if unused. Positions of bridges follow the written chain, without caps; N, C: chain ends. Non-standard residues stand in square brackets, D forms with d. Residues, ends and D or L forms follow the SMILES beside them. Chains are numbered I, II in the order given. Actinocin(9to1) = Cc1c2oc3c(C)ccc(C(=O)[*:1])c3nc-2c(C(=O)[*:2])c(N)c1=O; NMeV = CN[C@H](C(=O)O)C(C)C; Sar = CNCC(=O)O

How the values were obtained:
TNF-α = test: Induction of TNF-α by LPS in THP-1 cells (ELISA); type: cell-based; conditions: for TNF-α in the medium: inhibitor 30 min prior to LPS, medium collected 3 hr after LPS; for IC50: Homo sapiens, THP-1, LPS 2 µg/ml, serum-free medium, read-out: THP-1 Cells TNF-α IC50
Method: THP-1 cells were grown in RPMI 1640 medium supplemented with 10% fetal bovine serum. LPS (E.coli serotype 0111.B4, TCA extracted) was purchased from Sigma and dissolved in PBS. ELISA kits for assaying IL-1 and TNF-α were purchased from Boerhinger-Mannheim and assays on THP-1 culture medium were performed as directed by the manufacturer. Standard curves according to directions were obtained with each assay.
Experiments were performed in 12 well culture plates with either 1 or 2 ml of THP-1 cells at 4 X 10^5 cells/ml. IL-1 and TNF-α were induced by the addition of LPS to the culture medium and the medium collected at various times thereafter for cytokine assay. Cells were removed by centrifugation and the supernatants frozen at -70°C until assay. To minimize costs experiments were performed in duplicate cultures and the duplicate supernatants were pooled after centrifugation. Each pooled supernatant was assayed in duplicate. Stock solutions of indolo- and fused pyrrolocarbazoles in 100% DMSO were diluted to the desired concentrations in either medium containing 10% fetal bovine serum or in medium containing 0.5 mg/ml BSA. Unless otherwise stated, compounds were added to the THP-1 cells 1 hr prior to the addition of LPS.

MKK4 = test: MPTP model: phosphorylated MKK4 in the substantia nigra (immunoblot, ELISA); type: in vivo, mice; conditions: pretreatment; Compound III-3 1 mg/kg (Fig. 22c)
Method: MPTP was administered at a dose (40 mg/kg) that produces loss of striatal dopaminergic terminals and cell bodies in the substantia nigra. Tyrosine hydroxylase was used as a marker for dopamenergic nerve terminals in the substantia nigra. […] Since Compound III-3 is a known inhibitor of MLK3, activation of a downstream substrate of MLK3 was measured in MPTP- treated mice. Levels of phosphorylated MKK4 were measured using a phospho-MKK4 specific antibody (New England Biolabs, Beverly, MA) that recognizes the monophosphorylated form of MKK4 by either immunoblot (Fig. 22b) or ELISA (Fig. 22c). MPTP administration elevated levels of phosphorylated MKK4 in the substantia nigra by up to 5 fold over control levels (Fig. 22b). Peak elevations occurred 4 hrs after administration ofMPTP and coincided with peak CNS levels of MPP^+.

JNK = JNK activity immunoprecipitated from THP-1 cells; type: cell-based; conditions: Homo sapiens, read-out: THP-1 Cells JNK % inh. 500 nM
Method: Assays for JNK activity were performed after immunoprecipitating the JNK protein from an extract of lysed THP-1 cells. Pelleted THP-1 cells were lysed on ice for 15 min in 500 µl of Frac buffer (10 mM Tris-Hcl, pH 7.5,50 mM NaCl, 30 µM sodium pyrophosphate, 1 mg/ml BSA, 1% Triton-X-100). The extract was centrifuged for 10 min at 14K and 5 µl of JNK antibody (Santa Cruz) was added to the supernatant. The extract was rotated for 60 min at 4°C, 75 µl of washed protein A Sepharose (20% w/v in Frac) added and the extract rotated another 30 min to bind the antibody complex to the protein A Sepharose. The protein A Sepharose was washed twice with Frac buffer, once with 20 mM Hepes, pH 7.6, 20 mM MgCl2, 2 mM DTT, then incubated for 15 min at 30° C in 30 µl of kinase buffer (20 mM hepes, 20 mM MgCl2, 2 MM DTT, 1 µg recombinant c-jun, and 2 µM ATP-γ-^32P, 2 µCi. The reaction was terminated by the addition of 10 µl of 4X SDS gel loading buffer, heated for 3 min at 80° C, and the proteins were analyzed on a 10% SDS gel. The gel was dried, exposed to a Phosphorimager plate, and the radioactive bands were analyzed on a Phosphorimager.

MLK-3 = target: T1, MLK-3 (Homo sapiens, UniProt Q16584); test: JNK activity (immunoprecipitation/kinase assay) in Cos7 cells overexpressing MLK-3 and HA-JNK1; type: cell-based
T1 construct: A full length cDNA of human MLK-3, MLK-2, or mouse DLK; expressed in transfected cells; host or cells: Cos7
Method: Cos7 cells were plated at 80% confluency and transfected with 2 ug each of cDNA constructs using lipofectamine as recommended by the provider (Gibco BRL, Gaithersburg, MD). A full length cDNA of human MLK-3, MLK-2, or mouse DLK or a partial human MLK-1 as described above, and a full length Hemagluttinin A-tagged human JNK1, kindly provided by J. Silvio Gutkind (NIH, Bethesda, MD), were subcloned into the pcDNA3 vector (Invitrogen, San Diego, CA). […] JNK activity from the lysate was assayed by an immunoprecipitation/kinase assay as described below.
Lysate from Cos 7 cells was measured for protein concentration using the Micro BCA kit from Pierce (Rockford, IL) and equal amounts of protein were immunoprecipitated with the HA antibody for 1 hr at 4°C. Immunoprecipitates were pelleted by centrifugation in a microfuge centrifuge for 20 sec, resuspended in Triton buffer, washed by centrifugation 2 more times, followed by a final wash in Kinase buffer (20 mM Hepes pH 7.4,20 mM MgCl2, 2 mM dithiothreitol, 0.1 mM sodium vanadate). The immunoprecipitate was resuspended in kinase buffer containing 1 µM ATP and 5 µCi [γ-^32P]ATP and substrate (1 µg/sample of AP-1 ) and incubated for 15 min at 30°C. […] Samples were heated to 80°C for 5 min and loaded onto 10% SDS-polyacrylamide gels. Proteins were separated by electrophoresis. The gel was dried and quantitation of radioactivity in the AP-1 substrate was performed on a Molecular Dynamics Phosphorimager (Sunnyvale, Ca.).
To determine whether inhibition of the JNK pathway regulated by these kinases correlated with neurotrophic compounds, we evaluated the effect of compounds on JNK activity in Cos7 cells overexpressing HA-JNK and MLK3. After a 48 hr transfection period, the cells were incubated with compounds at 500 nM for 2hr followed by cellular lysis. Lysate was immunoprecipitated and kinase activity measured as previously described. […]

DLK = target: T2, DLK (Mus musculus, UniProt Q60700); test: JNK activity (immunoprecipitation/kinase assay) in Cos7 cells overexpressing DLK and HA-JNK1; type: cell-based; conditions: COS-7, 500 nM for 2 hr; replicate values in one cell; read-out: Cos-7 Cells DLK % JNK Inhib. @ 500nM
T2 construct: A full length cDNA of human MLK-3, MLK-2, or mouse DLK; expressed in transfected cells; host or cells: Cos7
T2 sequence (Q60700 1-888): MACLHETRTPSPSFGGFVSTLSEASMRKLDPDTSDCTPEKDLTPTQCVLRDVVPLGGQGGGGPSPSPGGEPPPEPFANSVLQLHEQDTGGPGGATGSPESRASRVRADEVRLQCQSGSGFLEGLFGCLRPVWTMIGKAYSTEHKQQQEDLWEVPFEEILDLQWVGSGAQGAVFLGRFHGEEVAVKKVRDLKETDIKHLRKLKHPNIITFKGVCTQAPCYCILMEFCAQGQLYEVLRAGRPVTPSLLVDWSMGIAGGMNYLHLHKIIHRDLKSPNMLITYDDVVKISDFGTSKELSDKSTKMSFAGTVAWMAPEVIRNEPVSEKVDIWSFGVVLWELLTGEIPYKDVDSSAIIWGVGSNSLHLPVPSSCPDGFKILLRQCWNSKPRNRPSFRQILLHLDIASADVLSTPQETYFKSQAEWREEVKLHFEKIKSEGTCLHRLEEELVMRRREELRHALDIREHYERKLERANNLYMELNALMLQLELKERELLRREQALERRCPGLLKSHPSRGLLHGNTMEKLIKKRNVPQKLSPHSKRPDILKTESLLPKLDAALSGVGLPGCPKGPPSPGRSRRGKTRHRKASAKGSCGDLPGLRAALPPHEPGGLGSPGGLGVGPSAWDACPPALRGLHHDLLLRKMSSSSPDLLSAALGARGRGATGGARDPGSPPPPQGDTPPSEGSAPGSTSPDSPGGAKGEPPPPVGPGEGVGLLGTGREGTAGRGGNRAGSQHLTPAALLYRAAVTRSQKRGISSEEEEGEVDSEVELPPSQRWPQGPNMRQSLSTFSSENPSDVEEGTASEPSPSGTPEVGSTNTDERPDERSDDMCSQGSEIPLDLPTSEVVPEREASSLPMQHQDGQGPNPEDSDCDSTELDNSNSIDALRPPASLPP
Method: Cos7 cells were plated at 80% confluency and transfected with 2 ug each of cDNA constructs using lipofectamine as recommended by the provider (Gibco BRL, Gaithersburg, MD). A full length cDNA of human MLK-3, MLK-2, or mouse DLK or a partial human MLK-1 as described above, and a full length Hemagluttinin A-tagged human JNK1, kindly provided by J. Silvio Gutkind (NIH, Bethesda, MD), were subcloned into the pcDNA3 vector (Invitrogen, San Diego, CA). After a 48 hr transfection, the cells were treated with 0.025% DMSO or 500 nM of the indicated compounds for 2 hr followed by lysis in 0.4 ml Triton buffer (1% Triton X-100, 50 mM sodium chloride, 10 mM Tris (pH 7.6), 0.1 % bovine serum albumin, 30 uM sodium pyrophosphate, 50 mM sodium fluoride, 20 ug/ml aprotinin, 1 mM phenylmethylsulfonylfluoride, 1 mM sodium vanadate). JNK activity from the lysate was assayed by an immunoprecipitation/kinase assay as described below.
Lysate from Cos 7 cells was measured for protein concentration using the Micro BCA kit from Pierce (Rockford, IL) and equal amounts of protein were immunoprecipitated with the HA antibody for 1 hr at 4°C. […] The gel was dried and quantitation of radioactivity in the AP-1 substrate was performed on a Molecular Dynamics Phosphorimager (Sunnyvale, Ca.). […]

[1] = COS-7, 500 nM for 2hr, control is JNK activity in the presence of DMSO, read-out: % Inhibition of JNK Activity (average) MLK3 in Cos7 cells
[2] = COS-7, read-out: Overexpressed MLK3 in Cos 7 Cells JNK % inh. 500 nM

T1 sequence (Q16584 whole entry): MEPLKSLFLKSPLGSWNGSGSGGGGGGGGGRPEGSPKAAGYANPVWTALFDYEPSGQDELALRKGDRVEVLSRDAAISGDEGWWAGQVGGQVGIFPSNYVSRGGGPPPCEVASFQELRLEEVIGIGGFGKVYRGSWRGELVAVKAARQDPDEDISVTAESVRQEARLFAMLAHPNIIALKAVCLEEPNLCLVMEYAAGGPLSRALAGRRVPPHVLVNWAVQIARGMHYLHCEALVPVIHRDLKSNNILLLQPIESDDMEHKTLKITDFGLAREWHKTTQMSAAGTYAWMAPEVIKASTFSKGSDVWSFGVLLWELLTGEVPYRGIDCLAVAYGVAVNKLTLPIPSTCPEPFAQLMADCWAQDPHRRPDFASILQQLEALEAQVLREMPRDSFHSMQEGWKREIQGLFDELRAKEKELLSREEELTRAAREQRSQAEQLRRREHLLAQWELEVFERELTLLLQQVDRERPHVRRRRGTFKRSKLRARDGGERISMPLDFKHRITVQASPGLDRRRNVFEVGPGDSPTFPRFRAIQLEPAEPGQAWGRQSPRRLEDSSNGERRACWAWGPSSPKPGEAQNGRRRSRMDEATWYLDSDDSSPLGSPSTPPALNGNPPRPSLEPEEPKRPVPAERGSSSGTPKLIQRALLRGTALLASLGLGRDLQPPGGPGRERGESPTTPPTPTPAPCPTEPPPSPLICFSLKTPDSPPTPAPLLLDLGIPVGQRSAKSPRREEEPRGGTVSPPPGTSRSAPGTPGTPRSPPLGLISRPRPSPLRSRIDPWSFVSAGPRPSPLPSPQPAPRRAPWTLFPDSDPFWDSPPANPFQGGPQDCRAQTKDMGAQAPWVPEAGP

| SMILES | inhibition at 0.5 µM (JNK) [%] | IC50 (TNF-α) [nM] | inhibition at 0.5 µM (MLK-3; [1]) [%] | inhibition at 0.5 µM (MLK-3; [2]) [%] | also measured |
| --- | --- | --- | --- | --- | --- |
| Cc1c2oc3c(C)ccc(C(=O)N[C@@H]4C(=O)N[C@H](C(C)C)C(=O)N5CCC[C@H]5C(=O)N(C)CC(=O)N(C)[C@@H](C(C)C)C(=O)O[C@@H]4C)c3nc-2c(C(=O)N[C@@H]2C(=O)N[C@H](C(C)C)C(=O)N3CCC[C@H]3C(=O)N(C)CC(=O)N(C)[C@@H](C(C)C)C(=O)O[C@@H]2C)c(N)c1=O [Actinomycin D, reference compound] (I: T[dV]P[Sar][NMeV] / II: T[dV]P[Sar][NMeV]; ester I:1-I:C, II:1-II:C; linker I:N-II:N via Actinocin(9to1)) |  |  |  |  | TNF-α in the medium (TNF-α): no TNF-α was found |
| C#CCN(C)[C@H](C)Cc1ccccc1 [Compound 1-deprenyl, 1-deprenyl, reference compound] |  |  |  |  | MPTP-mediated MKK4 phosphorylation (MKK4): attenuated |
| CCNC(=O)Nc1ccc2c(c1)c1c3c(c4c5cc(CCc6ccccn6)ccc5n5c4c1n2C1CC(O)(C(=O)OC)C5(C)O1)CNC3=O (centres unmarked) [III-1] | 93.5 | 49.5 | 84 | 83.8 |  |
| CCOCOCc1ccc2c(c1)c1c3c(c4c5cc(COCOCC)ccc5n5c4c1n2C1CC(O)(C(=O)OC)C5(C)O1)CNC3=O (centres unmarked) [III-2] |  |  | 96 |  |  |
| CCCCCOC(=O)C1(O)CC2OC1(C)n1c3ccccc3c3c4c(c5c6ccccc6n2c5c31)C(=O)NC4 (centres unmarked) [III-4] | 81 | 462 | 66 | 66 |  |
| COC(=O)C1(O)CC2OC1(C)n1c3ccccc3c3c4c(c5c6ccccc6n2c5c31)C(=O)NC4 (centres unmarked) [III-9] |  |  | 98.5 |  |  |
| COC(=O)C1(O)CC2OC1(C)n1c3ccc(CCSC)cc3c3c4c(c5c6cc(CCSC)ccc6n2c5c31)C(=O)NC4 (centres unmarked) [III-10] | 48 | 4300 | 78 | 78 |  |
| COC(=O)C1(OC)CC2OC1(C)n1c3ccccc3c3c4c(c5c6ccccc6n2c5c31)C(=O)NC4 (centres unmarked) [III-11] | 51 | 686 | 92.5 |  | inhibition at 0.5 µM (MLK-3; COS-7, 500 nM, read-out: Overexpressed MLK3 in Cos 7 Cells JNK % inh. 500 nM): 92.5% |
| COC(=O)C1(O)CC2OC1(C)n1c3ccccc3c3c4c(c5c6ccccc6n2c5c31)C(=O)NC4 (centres unmarked) [III^1] |  |  |  |  | inhibition at 0.5 µM (DLK): 63%; inhibition at 0.5 µM (MLK-3; COS-7, 500 nM for 2 hr, replicate values in one cell, read-out: Cos-7 Cells MLK-3 % JNK Inhib. @ 500nM): 99% |
| C[C@@H]1C[C@@H]([C@H](O)CC2CC(=O)NC(=O)C2)C(=O)[C@@H](C)C1 [cycloheximide, reference compound] |  |  |  |  | TNF-α in the medium (TNF-α): no TNF-α was found |
